Source: US8841233B2, “Herbicidal compositions comprising 4-amino-3-chloro-5-fluoro-6-(4-chloro-2-fluoro-3-methoxyphenyl) pyridine-2-carboxylic acid or a derivative thereof and 4-hydroxyphenyl-pyruvate dioxygenase (HPPD) inhibitors” (Dow Agrosciences LLC, priority 2012, dated 2014)

What was measured:
SCPMA = test: In-water applied weed control, transplanted paddy rice, greenhouse (Example II); assay type: in vivo; conditions: 37.5 gai/ha
Protocol: (§1) Evaluation of in-Water Applied Herbicidal Mixtures for Weed Control in Transplanted Paddy Rice
(§2) Weed seeds or nutlets of the desired test plant species were planted in puddled soil (mud) prepared by mixing a shredded, non-sterilized mineral soil (50.5 percent silt, 25.5 percent clay, and 24 percent sand, with a pH of about 7.6 and an organic matter content of about 2.9 percent) and water at a 1:1 volumetric ratio. The prepared mud was dispensed in 365 mL aliquots into 16-ounce (oz.) non-perforated plastic pots with a surface area of 86.59 square centimeters (cm^2) leaving a headspace of 3 centimeters (cm) in each pot. Mud was allowed to dry overnight prior to planting or transplanting. Rice seeds were planted in Sun Gro MetroMix® 306 planting mixture, which typically has a pH of 6.0 to 6.8 and an organic matter content of about 30 percent, in plastic plug trays. Seedlings at the second or third leaf stage of growth were transplanted into 840 mL of mud contained in 32-oz. non-perforated plastic pots with a surface area of 86.59 cm^2 4 days prior to herbicide application. The paddy was created by filling the headspace of the pots with 2.5 to 3 cm of water. When required to ensure good germination and healthy plants, a fungicide treatment and/or other chemical or physical treatment was applied. The plants were grown for 4-22 days in a greenhouse with an approximate 14 h photoperiod which was maintained at about 29′C during the day and 26° C. during the night. Nutrients were added as Osmocote® (19:6:12, N:P:K+ minor nutrients) at 2 g per 16-oz. pot and 4 g per 32-oz. pot. Water was added on a regular basis to maintain the paddy flood, and supplemental lighting was provided with overhead metal halide 1000-Watt lamps as necessary. The plants were employed for testing when they reached the first through fourth true leaf stage.
(§3) Treatments consisted of the acid or esters of 4-amino-3-chloro-5-fluoro-6-(4-chloro-2-fluoro-3-methoxy-phenyl)pyridine-2-carboxylic acid (compound A) each formulated as an SC (suspension concentrate) and various herbicidal components alone and in combination. Forms of compound A were applied on an acid equivalent basis.
(§4) Other herbicidal components were applied on an active ingredient basis and included 4-hydroxyphenyl pyruvate dioxygenase (HPPD)-inhibiting herbicides mesotrione formulated as Callisto®, sulcotrione formulated as Mikado®, pyrazolynate formulated as Sunbird® 10% GR, and benzobicyclon formulated as Benzobicyclon 3.5% or technical material.
(§5) Treatment requirements for each compound or herbicidal component were calculated based upon the rates being tested, the concentration of active ingredient or acid equivalent in the formulation, an application volume of 2 mL per component per pot, and an application area of 86.59 cm^2 per pot.
(§6) For formulated compounds, a measured amount was placed in an individual 100 or 200 mL glass vial and was dissolved in a volume of 1.25% (v/v) Agri-Dex® crop oil concentrate to obtain application solutions.
(§7) For technical grade compounds, a weighed amount was placed in an individual 100 to 200 mL glass vial and was dissolved in a volume of acetone to obtain concentrated stock solutions. […] The concentrated stock solutions obtained were diluted with an equivalent volume of an aqueous mixture containing 2.5% (v/v) crop oil concentrate so that the final application solutions contained 1.25% (v/v) crop oil concentrate.
(§8) Applications were made by injecting with a pipetter appropriate amounts of the application solutions, individually and sequentially, into the aqueous layer of the paddy. Control plants were treated in the same manner with the solvent blank. Applications were made so that all treated plant material received the same concentrations of acetone and crop oil concentrate.
(§9) The treated plants and control plants were placed in a greenhouse as described above and water was added as needed to maintain a paddy flood. […]

LEFCH [1] = test: Post-emergence foliar-applied weed control, greenhouse (Example I); assay type: in vivo, Leptochloa chinensis (L.) Nees; conditions: 150 gai/ha
From the text: (§10) Evaluation of Post-emergence Foliar-Applied Herbicidal Mixtures for Weed Control in Direct Seeded Rice
Seeds or nutlets of the desired test plant species were planted in a soil matrix prepared by mixing a loam or sandy loam soil (e.g., 28.6 percent silt, 18.8 percent clay, and 52.6 percent sand, with a pH of about 5.8 and an organic matter content of about 1.8 percent) and calcareous grit in an 80 to 20 ratio. The soil matrix was contained in plastic pots with a volume of 1 quart and a surface area of 83.6 square centimeters (cm^2). When required to ensure good germination and healthy plants, a fungicide treatment and/or other chemical or physical treatment was applied. The plants were grown for 8-22 days in a greenhouse with an approximate 14 h photoperiod which was maintained at about 29° C. during the day and 26° C. during the night. Nutrients (Peters Excel® 15-5-15 5-Ca 2-Mg and iron chelate) were applied in the irrigation solution as needed and water was added on a regular basis. Supplemental lighting was provided with overhead metal halide 1000-Watt lamps as necessary. The plants were employed for testing when they reached the first through fourth true leaf stage. […]
(§11) Treatment requirements were calculated based upon the rates being tested, the concentration of active ingredient or acid equivalent in the formulation, and a 12 mL application volume at a rate of 187 L/ha.
For treatments comprised of formulated compounds, measured amounts of compounds were placed individually in 25 mL glass vials and diluted in a volume of 1.25% (v/v) Agri-Dex® crop oil concentrated to obtain 12× stock solutions. […]
For treatments comprised of formulated and technical compounds, weighed amounts of the technical materials were placed individually in 25 mL glass vials and dissolved in a volume of 97:3 v/v acetone/DMSO to obtain 12× stock solutions, and measured amounts of the formulated compounds were placed individually in 25 mL glass vials and diluted in a volume of 1.5% (v/v) crop oil concentrate or water to obtain 12× stock solutions. […]

SCPJU = test: In-water applied weed control, transplanted paddy rice, greenhouse (Example II); assay type: in vivo, Schoenoplectus juncoides (Roxb.) Palla
Protocol: as §1
as §2, with “Water was added on a regular basis to maintain the paddy flood, and supplemental lighting was provided with overhead metal halide 1000-Watt lamps as necessary. The plants were employed for testing when they reached the first through fourth true leaf stage.” left out
as §5
(§12) For formulated compounds, a measured amount was placed in an individual 100 or 200 mL glass vial and was dissolved in a volume of 1.25% (v/v) Agri-Dex® crop oil concentrate to obtain application solutions. […]

CYPRO = test: as above; assay type: in vivo, Cyperus rotundus L.
Protocol: as §1, §2, §3, §4, §5, §6, §7, §8, §9

ECHCO = test: as above; assay type: in vivo, Echinochloa colona (L.) Link
Protocol: as §1, §2
as §3, with “basis. […]” for “basis.”
as §5, §12

IPOHE = test: Post-emergence foliar-applied weed control, greenhouse (Example I); assay type: in vivo, Ipomoea hederacea Jacq.; conditions: 150 gai/ha
From the text: as §10
(§13) Seeds or nutlets of the desired test plant species were planted in a soil matrix prepared by mixing a loam or sandy loam soil (e.g., 28.6 percent silt, 18.8 percent clay, and 52.6 percent sand, with a pH of about 5.8 and an organic matter content of about 1.8 percent) and calcareous grit in an 80 to 20 ratio. The soil matrix was contained in plastic pots with a volume of 1 quart and a surface area of 83.6 square centimeters (cm^2). When required to ensure good germination and healthy plants, a fungicide treatment and/or other chemical or physical treatment was applied. The plants were grown for 8-22 days in a greenhouse with an approximate 14 h photoperiod which was maintained at about 29° C. during the day and 26° C. during the night. Nutrients (Peters Excel® 15-5-15 5-Ca 2-Mg and iron chelate) were applied in the irrigation solution as needed and water was added on a regular basis. Supplemental lighting was provided with overhead metal halide 1000-Watt lamps as necessary. The plants were employed for testing when they reached the first through fourth true leaf stage.
as §3, with “(Compound A),” for “(compound A)”, “concentrate),” for “concentrate)”, “Compound” for “compound”
as §4, with “3.5%.” for “3.5% or technical material.”
as §11
(§14) For treatments comprised of formulated compounds, measured amounts of compounds were placed individually in 25 mL glass vials and diluted in a volume of 1.25% (v/v) Agri-Dex® crop oil concentrated to obtain 12× stock solutions. […] Application solutions were prepared by adding an appropriate amount of each stock solution (e.g., 1 mL) and diluted to the appropriate final concentrations with the addition of 10 mL of an aqueous mixture of 1.25% (v/v) crop oil concentrate so that the final spray solutions contained 1.25+/−0.05% (v/v) crop oil concentrate.
(§15) For treatments comprised of formulated and technical compounds, weighed amounts of the technical materials were placed individually in 25 mL glass vials and dissolved in a volume of 97:3 v/v acetone/DMSO to obtain 12× stock solutions, and measured amounts of the formulated compounds were placed individually in 25 mL glass vials and diluted in a volume of 1.5% (v/v) crop oil concentrate or water to obtain 12× stock solutions. […] Application solutions were prepared by adding an appropriate amount of each stock solution (e.g., 1 mL) and diluted to the appropriate final concentrations with the addition of an appropriate amount of an aqueous mixture of 1.5% (v/v) crop oil concentrate so that the final spray solutions contained 1.25% (v/v) crop oil concentrate. As required, additional water and/or 97:3 v/v acetone/DMSO was added to individual application solutions so that the final acetone and DMSO concentrations of the application solutions being compared were 8.1% and 0.25%, respectively.
(§16) All stock solutions and applications solutions were visually inspected for compound compatibility prior to application. Spray solutions were applied to the plant material with an overhead Mandel track sprayer equipped with a 8002E nozzles calibrated to deliver 187 L/ha over an application area of 0.503 m^2 at a spray height of 18 to 20 inches (46 to 50 cm) above average plant canopy height. […]

ECHCG [2] = test: as above; assay type: in vivo, Echinochloa crusgalli (L.) Beauv.
From the text: as §10, §13
as §3, with “(Compound A),” for “(compound A)”, “concentrate),” for “concentrate)”, “Compound” for “compound”
as §4, with “3.5%.” for “3.5% or technical material.”
as §11, §14, §15, §16

ECHCG [3] = test: In-water applied weed control, transplanted paddy rice, greenhouse (Example II); assay type: in vivo, Echinochloa crusgalli (L.) Beauv.
Protocol: as §1, §2, §3, §4, §5, §6, §7, §8, §9

LEFCH [4] = test: as above; assay type: in vivo, Leptochloa chinensis (L.) Nees
Protocol: as §1, §2, §3, §4, §5, §6, §7, §8, §9

ECHOR = test: as above; assay type: in vivo, Echinochloa oryzoides (Ard.) Fritsch
Protocol: as §1, §2, §3, §4, §5, §6, §7, §8, §9

FIMMI = test: as above; assay type: in vivo, Fimbristylis miliacea (L.) Vahl
Protocol: as §1, §2, §3, §4, §5, §6, §7, §8, §9

## Cc1ccc(S(=O)(=O)Oc2c(C(=O)c3ccc(Cl)cc3Cl)c(C)nn2C)cc1 [Pyrazolynate, (2,4-dichlorophenyl)[1,3-dimethyl-5-[[(4-methylphenyl)sulfonyl]oxy]-1H-pyrazol-4-yl]methanone, reference compound]
SCPMA
  Visual Weed Control (%) - 21 DAA SCPMA Obs: 0%
LEFCH [1]
  Visual Weed Control (%) - 21 DAA LEFCH Obs: 5%
SCPJU; 37.5 gai/ha
  Visual Weed Control (%) - 21 DAA SCPJU Obs: 0%
SCPJU; 75 gai/ha
  Visual Weed Control (%) - 21 DAA SCPJU Obs: 0%
CYPRO; 37.5 gai/ha
  Visual Weed Control (%) - 21 DAA CYPRO Obs: 0%
CYPRO; 75 gai/ha
  Visual Weed Control (%) - 21 DAA CYPRO Obs: 0%
ECHCO; 37.5 gai/ha
  Visual Weed Control (%) - 21 DAA ECHCO Obs: 0%
ECHCO; 75 gai/ha
  Visual Weed Control (%) - 21 DAA ECHCO Obs: 0%
IPOHE
  Visual Weed Control (%) - 21 DAA IPOHE Obs: 10%
ECHCG [2]; 37.5 gai/ha
  Visual Weed Control (%) - 22 DAA ECHCG Obs: 0%
ECHCG [2]; 75 gai/ha
  Visual Weed Control (%) - 22 DAA ECHCG Obs: 0%
ECHCG [2]; 150 gai/ha
  Visual Weed Control (%) - 21 DAA ECHCG Obs: 0%
ECHCG [3]; 37.5 gai/ha
  Visual Weed Control (%) - 21 DAA ECHCG Obs: 0%
ECHCG [3]; 75 gai/ha
  Visual Weed Control (%) - 21 DAA ECHCG Obs: 0%
LEFCH [4]; 37.5 gai/ha
  Visual Weed Control (%) - 21 DAA LEFCH Obs: 0%
LEFCH [4]; 75 gai/ha
  Visual Weed Control (%) - 21 DAA LEFCH Obs: 50%
ECHOR; 37.5 gai/ha
  Visual Weed Control (%) - 21 DAA ECHOR Obs: 0%
ECHOR; 75 gai/ha
  Visual Weed Control (%) - 21 DAA ECHOR Obs: 8%
ECHOR; 150 gai/ha
  Visual Weed Control (%) - 21 DAA ECHOR Obs: 13%
FIMMI; 37.5 gai/ha
  Visual Weed Control (%) - 21 DAA FIMMI Obs: 0%
FIMMI; 75 gai/ha
  Visual Weed Control (%) - 21 DAA FIMMI Obs: 0%
